Assay results taken from patent US11224565B2, “N-acyldipeptide derivatives and their uses” (NeoStrata Company, Inc., priority 2011, dated 2022).
Peptide text beside a SMILES is read from it.

Legend:
Type in all cases: in vivo, human
Settings in all cases: efficacy grade
[1] = test system: Disturbed keratinization; assay: Summary of test results in volunteer subjects: disturbed keratinization
Text: (§1) In one embodiment, a composition for topical application to test its therapeutic effect was formulated by dissolving a bioactive dipeptide derivative of the present invention in a solution prepared from 40 parts water, 40 parts ethanol and 20 parts propylene glycol by volume (WEP442). In another embodiment, a composition was formulated by dissolving a bioactive dipeptide derivative of the present invention in a non-aqueous solution prepared from 80 parts ethanol and 20 parts propylene glycol by volume (EP82). In yet another embodiment, a composition was formulated first by dissolving a bioactive dipeptide derivative of the present invention in a solution prepared from 80 parts water and 20 parts propylene glycol by volume (WP82), and the solution thus prepared was mixed with an oil-in-water emulsion or cream. In another embodiment, the volunteer subject topically applied the test compositions containing N-acyldipeptide derivatives of the present invention on involved skin or lesions once or twice daily for several weeks or until the involved lesions completely cleared and clinically changed to normal skin. As a control study, the subject also topically applied a vehicle control composition on the involved skin or lesions twice daily for the same period. In yet another embodiment, the volunteer subject topically applied once or twice daily the test compositions containing N-acyldipeptide derivatives of the present invention on the skin site above arthritic joints or painful muscles to provide therapeutic effects for the systemic disorders via topical administration. Some test results are summarized as follows. DK: Disturbed keratinization

[2] = test system: Aging related changes of skin, nail and hair; assay: Summary of test results in volunteer subjects: aging related changes
Text: as §1, with “AG: Aging related changes of skin, nail and hair” for “DK: Disturbed keratinization”

[3] = test system: Deranged immune disorders and inflammation; assay: Summary of test results in volunteer subjects: deranged immune disorders and inflammation
Text: as §1, with “DI: Deranged immune disorders and inflammation” for “DK: Disturbed keratinization”

[4] = test system: Nerve disorders; assay: Summary of test results in volunteer subjects: nerve disorders
Text: as §1, with “ND: Nerve disorders” for “DK: Disturbed keratinization”

CC(=O)N[C@@H](Cc1ccc(O)cc1)C(=O)NCC(N)=O [N-Ac-L-Tyr-Gly-NH2]
DK [1]: 2+ (2+: 50% Efficacy) | AG [2]: 2+ (2+: 50% Efficacy) | DI [3]: 2+ (2+: 50% Efficacy) | ND [4]: 2+ (2+: 50% Efficacy)

CC(=O)N[C@H](C(=O)N[C@@H](C)C(=O)O)C(C)C [N-Ac-L-Val-L-Ala-OH] (Ac-Val-Ala-OH)
DK [1]: 2+ (2+: 50% Efficacy) | AG [2]: 2+ (2+: 50% Efficacy) | DI [3]: 3+ (3+: 75% Efficacy) | ND [4]: 4+ (4+: 95-100% Efficacy)

CCC(=O)N[C@@H](CC(C)C)C(=O)NCC(=O)O [N-Pr-L-Leu-Gly-OH] (HELM PEPTIDE1{[CCC(=O)[*:2]].L.G}$$$$V2.0)
DK [1]: 2+ (2+: 50% Efficacy) | AG [2]: 2+ (2+: 50% Efficacy) | DI [3]: 3+ (3+: 75% Efficacy) | ND [4]: 3+ (3+: 75% Efficacy)

CC(=O)N[C@@H](CS)C(=O)N[C@@H](CS)C(=O)O [N-Ac-L-Cys-L-Cys-OH] (Ac-Cys-Cys-OH)
DK [1]: 2+ (2+: 50% Efficacy) | AG [2]: 3+ (3+: 75% Efficacy) | DI [3]: 2+ (2+: 50% Efficacy) | ND [4]: 2+ (2+: 50% Efficacy)

CC(=O)N[C@@H](Cc1c[nH]c2ccccc12)C(=O)N[C@@H](Cc1c[nH]c2ccccc12)C(N)=O [N-Ac-L-Trp-L-Trp-NH2] (Ac-Trp-Trp-NH2)
DK [1]: 2+ (2+: 50% Efficacy) | AG [2]: 2+ (2+: 50% Efficacy) | DI [3]: 2+ (2+: 50% Efficacy) | ND [4]: 2+ (2+: 50% Efficacy)

CC[C@H](C)[C@H](NC(=O)[C@H](C)NC(C)=O)C(N)=O [N-Ac-L-Ala-L-Ile-NH2] (Ac-Ala-Ile-NH2)
DK [1]: 2+ (2+: 50% Efficacy) | AG [2]: 2+ (2+: 50% Efficacy) | DI [3]: 3+ (3+: 75% Efficacy) | ND [4]: 3+ (3+: 75% Efficacy)

CC(=O)N[C@@H](CC(C)C)C(=O)N[C@@H](C)C(N)=O [N-Ac-L-Leu-L-Ala-NH2] (Ac-Leu-Ala-NH2)
DK [1]: 3+ (3+: 75% Efficacy) | AG [2]: 3+ (3+: 75% Efficacy) | DI [3]: 4+ (4+: 95-100% Efficacy) | ND [4]: 4+ (4+: 95-100% Efficacy)

N-Ac-L-Tyr-L-Hpg-NH2
DK [1]: 2+ (2+: 50% Efficacy) | AG [2]: 2+ (2+: 50% Efficacy) | DI [3]: 2+ (2+: 50% Efficacy) | ND [4]: 2+ (2+: 50% Efficacy)

CC(=O)Nc1ccccc1C(=O)NCC(N)=O [N-Ac-Abz-Gly-NH2]
DK [1]: 2+ (2+: 50% Efficacy) | AG [2]: 2+ (2+: 50% Efficacy) | DI [3]: 3+ (3+: 75% Efficacy) | ND [4]: 3+ (3+: 75% Efficacy)

NC(=O)CNC(=O)[C@H](Cc1ccc(O)cc1)NC(=O)OCc1ccccc1 [N-Z-L-Tyr-Gly-NH2]
DK [1]: 2+ (2+: 50% Efficacy) | AG [2]: 2+ (2+: 50% Efficacy) | DI [3]: 2+ (2+: 50% Efficacy) | ND [4]: 2+ (2+: 50% Efficacy)

CC[C@H](C)[C@H](NC(C)=O)C(=O)NCC(=O)O [N-Ac-L-Ile-Gly-OH] (Ac-Ile-Gly-OH)
DK [1]: 2+ (2+: 50% Efficacy) | AG [2]: 2+ (2+: 50% Efficacy) | DI [3]: 3+ (3+: 75% Efficacy) | ND [4]: 4+ (4+: 95-100% Efficacy)

N,N′-diAc-βAla-L-His-NH2
DK [1]: 2+ (2+: 50% Efficacy) | AG [2]: 2+ (2+: 50% Efficacy) | DI [3]: 2+ (2+: 50% Efficacy) | ND [4]: 2+ (2+: 50% Efficacy)

CC(=O)N[C@@H](Cc1c[nH]cn1)C(=O)NCC(N)=O [N-Ac-L-His-Gly-NH2] (Ac-His-Gly-NH2)
DK [1]: 2+ (2+: 50% Efficacy) | AG [2]: 2+ (2+: 50% Efficacy) | DI [3]: 2+ (2+: 50% Efficacy) | ND [4]: 2+ (2+: 50% Efficacy)

CC(=O)N[C@@H](CC(C)C)C(=O)N[C@@H](CC(C)C)C(N)=O [N-Ac-L-Leu-L-Leu-NH2]
DK [1]: 2+ (2+: 50% Efficacy) | AG [2]: 2+ (2+: 50% Efficacy) | DI [3]: 2+ (2+: 50% Efficacy) | ND [4]: 2+ (2+: 50% Efficacy)

CC(=O)N[C@H](C(=O)NCC(N)=O)C(C)C [N-Ac-L-Val-Gly-NH2] (Ac-Val-Gly-NH2)
DK [1]: 2+ (2+: 50% Efficacy) | AG [2]: 2+ (2+: 50% Efficacy) | DI [3]: 4+ (4+: 95-100% Efficacy) | ND [4]: 4+ (4+: 95-100% Efficacy)

CC[C@H](C)[C@H](NC(=O)[C@@H](NC(C)=O)[C@@H](C)CC)C(N)=O [N-Ac-L-Ile-L-Ile-NH2] (Ac-Ile-Ile-NH2)
DK [1]: 3+ (3+: 75% Efficacy) | AG [2]: 2+ (2+: 50% Efficacy) | DI [3]: 3+ (3+: 75% Efficacy) | ND [4]: 4+ (4+: 95-100% Efficacy)

CC[C@H](C)[C@H](NC(C)=O)C(=O)N[C@@H](Cc1ccc(O)cc1)C(N)=O [N-Ac-L-Ile-L-Tyr-NH2] (Ac-Ile-Tyr-NH2)
DK [1]: 2+ (2+: 50% Efficacy) | AG [2]: 2+ (2+: 50% Efficacy) | DI [3]: 2+ (2+: 50% Efficacy) | ND [4]: 2+ (2+: 50% Efficacy)

CC(=O)N[C@@H](CC(N)=O)C(=O)NCC(N)=O [N-Ac-L-Asn-Gly-NH2] (Ac-Asn-Gly-NH2)
DK [1]: 2+ (2+: 50% Efficacy) | AG [2]: 2+ (2+: 50% Efficacy) | DI [3]: 2+ (2+: 50% Efficacy) | ND [4]: 2+ (2+: 50% Efficacy)

CC(=O)NCCCC(=O)NCC(N)=O [N-Ac-Gaba-Gly-NH2]
DK [1]: 2+ (2+: 50% Efficacy) | AG [2]: 2+ (2+: 50% Efficacy) | DI [3]: 2+ (2+: 50% Efficacy) | ND [4]: 2+ (2+: 50% Efficacy)

CC(=O)N[C@@H](CO)C(=O)NCC(N)=O [N-Ac-L-Ser-Gly-NH2] (Ac-Ser-Gly-NH2)
DK [1]: 2+ (2+: 50% Efficacy) | AG [2]: 2+ (2+: 50% Efficacy) | DI [3]: 2+ (2+: 50% Efficacy) | ND [4]: 2+ (2+: 50% Efficacy)

CC(=O)N[C@@H](CC(C)C)C(=O)NCC(=O)O [N-Ac-L-Leu-Gly-OH] (Ac-Leu-Gly-OH)
DK [1]: 2+ (2+: 50% Efficacy) | AG [2]: 2+ (2+: 50% Efficacy) | DI [3]: 3+ (3+: 75% Efficacy) | ND [4]: 3+ (3+: 75% Efficacy)

CC(=O)N[C@H](C(=O)NCC(=O)O)C(C)C [N-Ac-L-Val-Gly-OH] (Ac-Val-Gly-OH)
DK [1]: 2+ (2+: 50% Efficacy) | AG [2]: 2+ (2+: 50% Efficacy) | DI [3]: 3+ (3+: 75% Efficacy) | ND [4]: 4+ (4+: 95-100% Efficacy)

CC(=O)N[C@@H](CC(C)C)C(=O)N[C@@H](Cc1ccc(O)cc1)C(N)=O [N-Ac-L-Leu-L-Tyr-NH2] (Ac-Leu-Tyr-NH2)
DK [1]: 2+ (2+: 50% Efficacy) | AG [2]: 2+ (2+: 50% Efficacy) | DI [3]: 2+ (2+: 50% Efficacy) | ND [4]: 2+ (2+: 50% Efficacy)

CC(=O)N[C@@H](CCC(N)=O)C(=O)NCC(N)=O [N-Ac-L-Gln-Gly-NH2] (Ac-Gln-Gly-NH2)
DK [1]: 2+ (2+: 50% Efficacy) | AG [2]: 2+ (2+: 50% Efficacy) | DI [3]: 2+ (2+: 50% Efficacy) | ND [4]: 2+ (2+: 50% Efficacy)
